“And” between values parts separate entries of the source, which are not always exact repeats. Identical values can stand only once. Like-named read-outs stand apart in the source and are kept apart here.
Legend:
α-synuclein fibrils [1] = target: T1, α-synuclein fibrils (Homo sapiens, UniProt P37840); experiment: ThT competitive assay for α-synuclein fibrils (Table 1); type: binding; details: for EC50: α-synuclein fibrils
T1 construct: made in house; host or cells: E. coli BL21(DE3)RIL
Procedure: Upon binding to amyloid fibrils, a peak at approximately 440 nm becomes dominant with the fluorescent emission maximum shifted to 480 nm. This is accompanied by a strong enhancement of the fluorescence.
α-Synuclein recombinant protein was produced in E. coli. […] Freshly transformed BL21 colonies were inoculated into 2 L baffled flasks containing 250 mL sterilized TB (1.2% bactotryptone, 2.4% yeast extract, 0.4% glycerol, 0.17 M KH2PO4, 0.72 M K2HPO4) with 50 μg/ml ampicillin, and incubated overnight at 37° C. with shaking.
To determine the concentration of fibrils, the reaction mixture (100 μL) was centrifuged at 18,000×g for 10 minutes to separate fibrils from monomer. The α-synuclein monomer and other soluble proteins in the supernatant were removed, and the fibril pellet was resuspended in 100 μL solution of Tris-HCl (20 mM) and NaCl (100 mM). This fibril suspension was used in a bicinchoninic acid (BCA) protein assay along with a bovine serum albumin (BSA) standard curve to determine the concentration of fibrils in the 72 hour fibril reaction mixture.
To prepare the fibrils for performing binding assays, the fibril reaction mixture prepared above was centrifuged at 18,000×g for 10 minutes.
Once the ThT-α-synuclein saturation binding curve and dissociation constant (Kd) were determined the competitive assay for determining the binding affinity of various test compounds was conducted. […] The mixture was incubated at room temperature for 60 minutes on the shaking plate. The fluorescent intensity for each cell was measured by the fluorescence reader at λex and λem. The Ki value for each compound was calculated by the corresponding inhibition curve.
The Ki values were derived from the EC50 values using the Cheng-Prusoff equation: Ki=EC50/(1+[radioligand]/Kd). See FIGS. 17.1-31.2 for the inhibition curves for each compound in the ThioT competitive binding assay.

Aβ fibrils = Aβ fibrils (Homo sapiens, UniProt P05067); experiment: ThT competitive assay for Aβ fibrils (Table 2); type: binding; set-up: made in house; host or cells: E. coli; details: for EC50: Aβ fibrils
Chain of Aβ fibrils (P05067 672-713 limits assumed): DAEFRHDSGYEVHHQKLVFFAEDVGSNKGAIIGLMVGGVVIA
Procedure: […] recombinant protein was produced in E. coli. Additional preparation was performed in a similar fashion to Example 115. […] The inhibitor that binds with highest affinity to Aβ fibrils has the lowest dissociation constant (Ki).

tau fibrils = tau fibrils (Homo sapiens, UniProt P10636); experiment: ThT competitive assay for tau fibrils (Table 3); type: binding; set-up: made in house; host or cells: E. coli; details: for EC50: tau fibrils
Chain of tau fibrils (P10636 560-692 limits assumed): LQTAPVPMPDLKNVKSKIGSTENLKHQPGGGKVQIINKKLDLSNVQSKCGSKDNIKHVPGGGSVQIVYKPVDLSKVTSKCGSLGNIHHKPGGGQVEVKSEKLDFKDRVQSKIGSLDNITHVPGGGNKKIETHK
Procedure: Tau fibril recombinant protein was produced in E. coli. Additional preparation was performed in a similar fashion to Example 115.

α-synuclein fibrils [2] = target: T1, α-synuclein fibrils; experiment: Radioligand binding assay with α-synuclein fibrils (Table 8)
AD Tissue = experiment: Radioligand saturation binding, AD postmortem brain tissue; set-up: species or system human; details: brain tissue homogenate
α-synuclein fibrils [3] = target: T1, α-synuclein fibrils; experiment: Thioflavin T competition assay (Example 130, Table 9), α-synuclein fibrils; type: binding
Procedure: Freshly transformed BL21 colonies were inoculated into 2 L baffled flasks containing 250 ml sterilized TB (1.2% bactotryptone, 2.4% yeast extract, 0.4% glycerol, 0.17 M KH2PO4, 0.72 M K2HPO4) with 50 μg/ml ampicillin, and incubated overnight at 37° C. with shaking.
Competition assays used a fixed concentration of α-syn, Aβ, or tau fibrils (1 μM), consisting of 3 μM, 50 nM and 4 μM of ThioflavinT respectively. […] To optimize the determination of selectivity, assays for all three fibril species were set up in parallel using a common set of intermediate compound dilutions for each analog. Reactions were incubated at room temperature for 1.5 h before quantifying bound ligand as described above for the saturation binding assay. […] All data points were performed in triplicate. Nonspecific fluorescence was measured in parallel reactions containing ThioT plus each concentration of competitor but no fibrils, and these measurements were subtracted from the reactions with fibrils to yield fibril-specific fluorescence. Data were analyzed using Graphpad. Prism software (version 4.0) to obtain EC50 values by fitting the data to the equation Y=bottom+(top-bottom)/(1+10^(x−log EC50)).

[4] = average, read-out: Ki (nM) α-syn (avg)
[5] = individual determinations, read-out: Ki (nM) α-syn
[6] = average, read-out: EC50 (nM) EC50 (avg)
[7] = individual determinations, read-out: EC50 (nM) EC50
[8] = average, read-out: EC50(nM) EC50 (avg)
[9] = individual determinations, read-out: EC50(nM) EC50
[10] = average, read-out: Ki (nM) Aβ (avg)
[11] = individual determinations, read-out: Ki (nM) Aβ
[12] = average, read-out: Ki (nM) Tau (avg)
[13] = individual determinations, read-out: Ki (nM) Tau
[14] = average, read-out: EC50m (nM) EC50 (avg)
[15] = individual determinations, read-out: EC50m (nM) EC50

Row | Structure (SMILES) | Ki (α-synuclein fibrils [1]; [4]) [nM] | Ki (α-synuclein fibrils [1]; [5]) | EC50 (α-synuclein fibrils [1]; [6]) [nM] | EC50 (α-synuclein fibrils [1]; [7]) | EC50 (Aβ fibrils; [8]) [nM] | EC50 (Aβ fibrils; [9]) | Ki (Aβ fibrils; [10]) [nM] | Ki (Aβ fibrils; [11]) | Ki (tau fibrils; [12]) [nM] | Ki (tau fibrils; [13]) | EC50 (tau fibrils; [14]) [nM] | EC50 (tau fibrils; [15]) | Kd (α-synuclein fibrils [2]) [nM] | Kd (AD Tissue) [nM] | EC50 (α-synuclein fibrils [3]; average, read-out: α-synuclein EC50 (avg)) [nM] | Ki (α-synuclein fibrils [3]; average, read-out: α-synuclein Ki (avg)) [nM] | EC50 (α-synuclein fibrils [3]; individual determinations, read-out: α-synuclein EC50) | Ki (α-synuclein fibrils [3]; individual determinations, read-out: α-synuclein Ki)
1 | COc1ccc(/C=C/c2ccco2)cc1 [TZ-34-24] | 345 | 610 nM and 163 nM and 262 nM | 902 | 1590 nM and 426 nM and 686 nM | 2280 | 2560 nM and 2000 nM | 888 | 961 nM and 815 nM | – | – | – | – | – | – | – | – | – | –
2 | COc1ccc(/C=C/c2cccs2)cc1 [TZ-34-26] | 176 | 51.3 nM and 283 nM and 126 nM and 291 nM and 82 nM and 221 nM | 460 | 134 nM and 739 nM and 329 nM and 762 nM and 214 nM and 580 nM | 6660 | 6660 nM | 2500 | 2500 nM | 1370 | 1370 nM | 3350 | 3350 nM | – | – | – | – | – | –
3 | COc1ccc(/C=C/c2ccsc2)cc1 [TZ-34-28] | 172 | 43.1 nM and 167 nM and 113 nM and 104 nM and 256 nM and 347 nM | 449 | 113 nM and 437 nM and 297 nM and 271 nM and 670 nM and 907 nM | – | – | – | – | 876 | 600 nM and 1150 nM | 2150 | 1470 nM and 2830 nM | – | – | – | – | – | –
4 | COc1ccc(/C=C/c2ccc(-c3cnc(C)s3)s2)cc1 [TZ-34-43] | 134 | – | 351 | – | 854 | 854 nM | 320 | 320 nM | 512 | 512 nM | 1260 | 1260 nM | – | – | – | – | – | –
5 | COc1ccc2nc(/C=C/c3ccnc(OC)c3)ccc2c1 [TZ-36-28-2T] | 51.8 | 37 nM and 40 nM and 87 nM and 66 nM and 29 nM | 136 | 98 nM and 105 nM and 226 nM and 174 nM and 76 nM | 715 | 715 nM | 268 | 268 nM | 34 | – | 82 | 82 nM | 30 | 13 | – | – | – | –
6 | COc1ccc2nc(/C=C/c3ccnc(Br)c3)ccc2c1 [TZ-36-36] | 152 | 128 nM and 175 nM | 396 | 335 nM and 457 nM | – | – | – | – | – | – | – | – | – | – | 396 | 152 | 335 nM and 457 nM | 128 nM and 175 nM

From US10300155B2, “Alpha-synuclein ligands” (Washington University, priority 2015, dated 2019)
